In PubChem BioAssay AID330 (DTP/NCI, 2004):
Values joined by “and” are separate entries in the source; they are usually repeats but may differ in a detail not shown here. Identical values can stand only once. Toxic doses and inconclusive results are not listed. How the source made its calls: active means survival T/C of 150% or more; inactive means T/C below 125% in these data.

Tested on: P388 leukemia ip, CD2F1 mice, survival T/C
Assay: NCI In Vivo Anticancer Drug Screen. Data for tumor model P388 Leukemia (intraperitoneal) in CD2F1 (CDF1) mice
Details: endpoint: median survival time, higher = longer survival
In short: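 Mice carrying the transplanted tumor received test compound or vehicle. Survival was recorded in each group, and the value is the treated-group measurement divided by that of the vehicle-treated control group.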

[1] = dose: 50.0 mg/kg/injection, schedule: Q01DX009 (ip), vehicle: saline with Tween-80
[2] = dose: 100.0 mg/kg/injection, schedule: Q01DX009 (ip), vehicle: saline with Tween-80
[3] = dose: 200.0 mg/kg/injection, schedule: Q01DX009 (ip), vehicle: saline with Tween-80
[4] = dose: 100.0 mg/kg/injection, schedule: Q04DX003 (ip), vehicle: saline with Tween-80
[5] = dose: 200.0 mg/kg/injection, schedule: Q04DX003 (ip), vehicle: saline with Tween-80
[6] = dose: 6.25 mg/kg/injection, schedule: Q01DX009 (ip), vehicle: saline with Tween-80
[7] = dose: 25.0 mg/kg/injection, schedule: Q01DX009 (ip), vehicle: saline with Tween-80
[8] = dose: 50.0 mg/kg/injection, schedule: Q01DX009 (ip), vehicle: Klucel (hydroxypropylcellulose) (HPC)
[9] = dose: 100.0 mg/kg/injection, schedule: Q01DX009 (ip), vehicle: Klucel (hydroxypropylcellulose) (HPC)
[10] = dose: 200.0 mg/kg/injection, schedule: Q01DX009 (ip), vehicle: Klucel (hydroxypropylcellulose) (HPC)
[11] = dose: 12.5 mg/kg/injection, schedule: Q01DX009 (ip), vehicle: saline with Tween-80
[12] = dose: 50.0 mg/kg/injection, schedule: Q01DX005 (ip), vehicle: saline with Tween-80
[13] = dose: 100.0 mg/kg/injection, schedule: Q01DX005 (ip), vehicle: saline with Tween-80
[14] = dose: 200.0 mg/kg/injection, schedule: Q01DX005 (ip), vehicle: saline with Tween-80

Measured: T/C

CN1C(c2ccccc2)C2CCCC(C1c1ccccc1)[N+](C)(C)C2 (centres undefined)
inactive: dose: 100.0 mg/kg/injection, schedule: Q04DX003 (ip), vehicle: suspension in saline 104 % of control | dose: 200.0 mg/kg/injection, schedule: Q04DX003 (ip), vehicle: suspension in saline 100 % of control | dose: 400.0 mg/kg/injection, schedule: Q04DX003 (ip), vehicle: suspension in saline 100 % of control

CC(C)(C)CC(C)(C)c1ccc(OCc2ccc(F)cc2)cc1
inactive: [1] 99 % of control | [2] 95 % of control | [3] 98 % of control

C[N+](C)(CCCCOc1c(Br)cc(Br)cc1Br)Cc1ccc([N+](=O)[O-])o1
inactive: dose: 12.5 mg/kg/injection, schedule: Q04DX003 (ip), vehicle: Klucel (hydroxypropylcellulose) (HPC) 100 % of control | dose: 25.0 mg/kg/injection, schedule: Q04DX003 (ip), vehicle: Klucel (hydroxypropylcellulose) (HPC) 101 % of control | dose: 50.0 mg/kg/injection, schedule: Q04DX003 (ip), vehicle: Klucel (hydroxypropylcellulose) (HPC) 100 % of control

CCCCOCC(=O)OCCCC
inactive: [2] 109 % of control | [4] 110 % of control | [3] 118 % of control | [5] 115 % of control | dose: 400.0 mg/kg/injection, schedule: Q01DX009 (ip), vehicle: saline with Tween-80 95 % of control | dose: 400.0 mg/kg/injection, schedule: Q04DX003 (ip), vehicle: saline with Tween-80 100 % of control

C=C(C)C1NC(=O)C(C(O)c2cc(O)c(O)c(Cl)c2)N(C)C(=O)/C(=C/C(=O)O)NC(=O)/C(=C(\C)CC)NC(=O)C2C=CCN2C(=O)C(C(C)(O)CC)NC1=O (centres undefined)
inactive: dose: 0.65 mg/kg/injection, schedule: Q01DX005 (ip), vehicle: Klucel (hydroxypropylcellulose) (HPC) 88 % of control | dose: 1.25 mg/kg/injection, schedule: Q01DX005 (ip), vehicle: Klucel (hydroxypropylcellulose) (HPC) 95 % of control | dose: 2.5 mg/kg/injection, schedule: Q01DX005 (ip), vehicle: Klucel (hydroxypropylcellulose) (HPC) 91 % of control

O=c1c2cccc3cccc(c32)c2nc3ccccc3n12
inactive: dose: 4.12 mg/kg/injection, schedule: Q01DX009 (ip), vehicle: saline with Tween-80 108 % of control | [6] 100 % of control | [7] 95 % of control

ClC1CCC[N-]C1.ClC1CCC[N-]C1.[Cl][Pt+2][Cl] (centres undefined)
inactive: dose: 0.78 mg/kg/injection, schedule: Q01DX009 (ip), vehicle: saline 97 % of control | dose: 1.56 mg/kg/injection, schedule: Q01DX009 (ip), vehicle: saline 97 % of control | dose: 3.13 mg/kg/injection, schedule: Q01DX009 (ip), vehicle: saline 101 % of control | dose: 6.25 mg/kg/injection, schedule: Q01DX009 (ip), vehicle: saline 96 % of control | dose: 12.5 mg/kg/injection, schedule: Q01DX009 (ip), vehicle: Klucel (hydroxypropylcellulose) (HPC) 118 % of control and 123 % of control | dose: 12.5 mg/kg/injection, schedule: Q01DX009 (ip), vehicle: saline 108 % of control | dose: 25.0 mg/kg/injection, schedule: Q01DX009 (ip), vehicle: Klucel (hydroxypropylcellulose) (HPC) 121 % of control | [8] 101 % of control and 122 % of control

C=C1C(=O)OC2CC1C(O)C/C(C)=C/CC/C(C)=C/CCC2(C)O (centres undefined)
inactive: dose: 2.0 mg/kg/injection, schedule: Q01DX009 (ip), vehicle: Klucel (hydroxypropylcellulose) (HPC) 110 % of control | dose: 4.0 mg/kg/injection, schedule: Q01DX009 (ip), vehicle: Klucel (hydroxypropylcellulose) (HPC) 110 % of control | dose: 8.0 mg/kg/injection, schedule: Q01DX009 (ip), vehicle: Klucel (hydroxypropylcellulose) (HPC) 122 % of control and 92 % of control | dose: 16.0 mg/kg/injection, schedule: Q01DX009 (ip), vehicle: Klucel (hydroxypropylcellulose) (HPC) 105 % of control and 114 % of control | dose: 32.0 mg/kg/injection, schedule: Q01DX009 (ip), vehicle: Klucel (hydroxypropylcellulose) (HPC) 106 % of control and 107 % of control

CCCCCCCCC(=O)C(=O)c1ccc(O)c(C)c1O
inactive: [8] 112 % of control | [9] 109 % of control | [10] 110 % of control

CC(=O)Nn1cnc2c(SCc3ccccc3)ncnc21
inactive: [8] 100 % of control | [1] 100 % of control | [9] 100 % of control | [2] 95 % of control | [4] 95 % of control | [10] 100 % of control | [3] 122 % of control

CCCCNC(=O)N(CC)c1ccccc1
inactive: dose: 100.0 mg/kg/injection, schedule: Q01DX001 (ip), vehicle: saline 109 % of control | dose: 200.0 mg/kg/injection, schedule: Q01DX001 (ip), vehicle: saline 113 % of control | dose: 400.0 mg/kg/injection, schedule: Q01DX001 (ip), vehicle: saline 109 % of control

CC(Nc1ccc([N+](=O)[O-])c2nonc12)C(=O)O (centres undefined)
inactive: [6] 108 % of control | [11] 100 % of control | [7] 111 % of control | [3] 86 % of control

CN1/C(=C/C=C/C(I)=C/C=C/C2=[N+](C)c3ccccc3C2(C)C)C(C)(C)c2ccccc21
inactive: dose: 3.13 mg/kg/injection, schedule: Q01DX009 (ip), vehicle: saline with Tween-80 121 % of control | [6] 123 % of control | [11] 120 % of control | [7] 124 % of control

O=C1CC(O)C2C(=O)c3c(c(Cl)c4ccccc4c3O)C(=O)C2C1 (centres undefined)
inactive: dose: 60.0 mg/kg/injection, schedule: Q01DX005 (ip), vehicle: Klucel (hydroxypropylcellulose) (HPC) 94 % of control | dose: 120.0 mg/kg/injection, schedule: Q01DX005 (ip), vehicle: Klucel (hydroxypropylcellulose) (HPC) 94 % of control | dose: 240.0 mg/kg/injection, schedule: Q01DX005 (ip), vehicle: Klucel (hydroxypropylcellulose) (HPC) 93 % of control

CC1C2c3ccccc3C(c3ccccc32)C1CO (centres undefined)
inactive: [12] 92 % of control | [13] 91 % of control | [14] 90 % of control

CC1=CC(Cc2ccccc2)N(C)C(C#N)C1 (centres undefined)
inactive: dose: 12.5 mg/kg/injection, schedule: Q01DX005 (ip), vehicle: saline with Tween-80 101 % of control | dose: 25.0 mg/kg/injection, schedule: Q01DX005 (ip), vehicle: saline with Tween-80 105 % of control | [12] 109 % of control and 116 % of control

CCN(CC)CCOc1ccc(/C=C(\C)C(C)=O)cc1
inactive: dose: 50.0 mg/kg/injection, schedule: Q01DX005 (ip), vehicle: saline 94 % of control | dose: 100.0 mg/kg/injection, schedule: Q01DX005 (ip), vehicle: saline 90 % of control

CCOC(=O)C(Cc1ccc(O)cc1)NC(=O)C(CCCCN)N(C(=O)OCc1ccccc1)C(=O)OCc1ccccc1 (centres undefined)
inactive: [12] 96 % of control | [13] 94 % of control | [14] 92 % of control

CCCC/C=C(\C)C(O)C(C)/C=C(\C)CCC(O)C(C)C(O)C(C)C(O)C(C)C1OC(C(C)C(=O)O)CCC1C (centres undefined)
inactive: dose: 1.5 mg/kg/injection, schedule: Q01DX005 (ip), vehicle: Klucel (hydroxypropylcellulose) (HPC) 103 % of control and 105 % of control | dose: 3.0 mg/kg/injection, schedule: Q01DX005 (ip), vehicle: Klucel (hydroxypropylcellulose) (HPC) 99 % of control and 108 % of control | dose: 6.0 mg/kg/injection, schedule: Q01DX005 (ip), vehicle: Klucel (hydroxypropylcellulose) (HPC) 102 % of control and 109 % of control | dose: 12.0 mg/kg/injection, schedule: Q01DX005 (ip), vehicle: Klucel (hydroxypropylcellulose) (HPC) 99 % of control and 100 % of control

N#Cc1ccc(C#N)cc1
inactive: [1] 90 % of control | dose: 50.0 mg/kg/injection, schedule: Q04DX003 (ip), vehicle: saline with Tween-80 91 % of control | [2] 100 % of control | [4] 91 % of control | [3] 100 % of control | [5] 87 % of control
